Measurements published in patent US20020155443A1, “Metal binding DNA interactive compounds” (priority 2000, published 2002).

Experiments:
Assay type in all cases: cell-based
[1] = test system: B16 murine melanoma cells; assay: Growth inhibition of B16 murine melanoma cells, MTT assay; conditions: B16 melanoma cells; read-out: IC50, growth inhibition
Description: (§1) The growth inhibitory activities of bis(propargylic) sulfone crown ethers 2.47 and 2.48 against B16 murine melanoma cells were determined calorimetrically with an MTT assay conducted by the Institute for Drug Development at the Cancer Research and Therapy Center in San Antonio, Tex.

[2] = test system: human cancer cell lines; assay: Growth inhibition across the human cancer cell line panel (overall statement); conditions: wide range of human cancer cell lines, in words
Description: as §1
(§2) The growth inhibitory activity of propargylic sulfone 3.2 against a wide range of human cancer cell lines was determined calorimetrically with sulforhodamine B assay conducted by the National Cancer Institute of the National Institutes of Health.
(§3) The in vitro cytotoxicity of compounds 2.47, 2.48 and 3.2 were investigated using the DTP Human Tumor Cell Line Screen. The concept, rationale and history of development of the DTP Human Tumor Cell Line Screen were described by Boyd (1993;1997)^8.4, 8.6 and Boyd and Paull (1995)^8.5. Further technical details of the NCI screening procedures were described (Monks, et. al.)^8.2 as were the origins and processing of the cell lines (Alley, et. al., Shoemaker, et. al., Stinson, et. al.). Briefly, cell suspensions that were diluted according to the particular cell type and the expected target cell density (5000-40,000 cells per well based on cell growth characteristics) were added by pipet (100 μL) into 96-well microtiter plates. Inoculates were allowed a preincubation period of 24 h at 37° C. for stabilization. Dilutions at twice the intended test concentration were added at time zero in 100-μL aliquots to the microtiter plate wells. Usually, test compounds were evaluated at five 10-fold dilutions. In routine testing, the highest well concentration is 10E-4 M, but for the standard agents the highest well concentration used depended on the agent. Incubations lasted for 48 h in 5% CO2 atmosphere and 100% humidity. The cells were assayed by using the sulforhodamine B assay (Rubinstein, et. al., Skehan, et. al.). A plate reader was used to read the optical densities, and a microcomputer processed the optical densities into the special concentration parameters.

[3] = test system: ACHN; assay: DTP Human Tumor Cell Line Screen, sulforhodamine B assay; conditions: Renal Cancer, 48 h
Description: as §2, §3

[4] = test system: NCI-H322M; assay: as above; conditions: Non-Small Cell Lung Cancer, 48 h
Description: as §2, §3

[5] = test system: MDA-MB-231/ATCC; assay: as above; conditions: Breast Cancer, 48 h
Description: as §2, §3

[6] = test system: SK-OV-3; assay: as above; conditions: Ovarian Cancer, 48 h
Description: as §2, §3

[7] = test system: HCT-15; assay: as above; conditions: Colon Cancer, 48 h
Description: as §2, §3

[8] = test system: SK-MEL-5; assay: as above; conditions: Melanoma, 48 h
Description: as §2, §3

[9] = test system: KM12; assay: as above; conditions: Colon Cancer, 48 h
Description: as §2, §3

[10] = test system: HCT-116; assay: as above; conditions: Colon Cancer, 48 h
Description: as §2, §3

[11] = test system: HT29; assay: as above; conditions: 48 h
Description: as §2, §3

[12] = test system: HS 578T; assay: as above; conditions: Breast Cancer, 48 h
Description: as §2, §3

[13] = test system: K-562; assay: as above; conditions: 48 h
Description: as §2, §3

[14] = test system: SR; assay: as above; conditions: Leukemia, 48 h
Description: as §2, §3

[15] = test system: BT-549; assay: as above; conditions: Breast Cancer, 48 h
Description: as §2, §3

[16] = test system: T-47D; assay: as above; conditions: Breast Cancer, 48 h
Description: as §2, §3

[17] = test system: RPMI-8226; assay: as above; conditions: Leukemia, 48 h
Description: as §2, §3

[18] = test system: M14; assay: as above; conditions: Melanoma, 48 h
Description: as §2, §3

SMILES | IC50 [1] [µM] | growth inhibitory properties against human cancer cell lines [2] | IC50 [3] [µM] | IC50 [4] [µM] | IC50 [5] [µM] | IC50 [6] [µM] | IC50 [7] [µM] | IC50 [8] [µM] | IC50 [9] [µM] | IC50 [10] [µM] | IC50 ([11]; Colon Cancer) [µM] | IC50 [12] [µM] | IC50 ([13]; Leukemia) [µM] | IC50 [14] [µM] | IC50 [15] [µM] | IC50 [16] [µM] | also measured
O=S1(=O)CC#CCOCCOCCOCCOCCOCCOCC#CC1 [Compound 2.47] | 54.2 | display growth inhibitory properties | 13.5 | 17.5 | 20 | 36 | 15.5 | 16.8 | 16.2 | 8.1 | 13.8 | 40.7 | 11.2 | 8.2 | 14.1 | 20.6 | –
O=S1(=O)CC#CCOCCOCCOCCOCCOCCOCCOCC#CC1 [Compound 2.48] | 44.7 | display growth inhibitory properties | 22.4 | 32.3 | 23.5 | 32.2 | 32.7 | 18.1 | 20.7 | 15.3 | 18.7 | 52.8 | 23.9 | 18.9 | 20 | 24.5 | IC50 [17]: 17.4 µM; IC50 [18]: 16.9 µM
O=C(OCC1COCCOCCOCCOCCO1)c1ccc(CS(=O)(=O)CC#CCO)cc1 (centres unmarked) [Compound 3.2] | – | modest growth inhibitory properties | – | – | – | – | – | – | – | – | – | – | – | – | – | – | IC50 ([3]; Homo sapiens): > 100 µM; IC50 ([4]; Homo sapiens): 34.3 µM; IC50 ([5]; Homo sapiens): > 100 µM; IC50 ([6]; Homo sapiens): > 100 µM; IC50 ([7]; Homo sapiens): > 100 µM; IC50 ([8]; Homo sapiens): > 100 µM; IC50 ([9]; Homo sapiens): > 100 µM; IC50 ([10]; Homo sapiens): > 100 µM; IC50 ([17]; Homo sapiens): 8.4 µM; IC50 ([11]; Homo sapiens, HT-29, Colon Cancer): > 100 µM; IC50 ([12]; Homo sapiens): 80 µM; IC50 ([13]; Homo sapiens, K562, Leukemia): 37 µM; IC50 ([14]; Homo sapiens): > 100 µM; IC50 ([15]; Homo sapiens): > 100 µM; IC50 ([18]; Homo sapiens): > 100 µM
